How the values were obtained:
[1] = Plasma exposure by baseline creatinine clearance group (FIG. 1; Studies 2, 3 and 5)
Method: Renal dysfunction is expected to elevate PAGN plasma concentrations. AE data from subjects with severe renal impairment were summarized. […] CLcr of 35 mL/min was chosen as a cut-off value in order to have relatively sufficient sample size for the group with relatively worse renal function.

[2] = Population PK modeling of PAA, Studies 2, 3 and 5; type: in vivo, human
Method: (§1) Both non-compartmental analysis and population PK analysis were conducted to identify factors attributing to the PK of PAA, ORN, and PAGN. Ethnicity factor on the PK of PAA was explored using the PK data from Caucasian, Chinese, and Japanese healthy subjects in Studies 1 and 4.
Hepatic impairment also altered PAA plasma exposure. To identify the factors contributing to PAA plasma exposure, population PK modeling was conducted. A one-compartment model with Michaelis-Menten kinetics describing the formation of PAGN from PAA adequately quantified PAA plasma concentration profiles in healthy subjects and patients. Body weight was identified as a significant covariate for the PK of PAA in both healthy subjects and patients. Other factors such as ethnicity and hepatic/renal impairment on the PK of PAA are described below.

[3] = Safety/tolerability of LOPA in patients with stable cirrhosis, Study 2; details: Study 2, FIG. 3
Method: (§2) Pharmacokinetics Analysis
(§3) Adverse events (AEs) were assessed and coded using the Medical Dictionary for Regulatory Activities (MedDRA) preferred term and system organ class.
(§4) The evaluation of potential correlation between central nervous system (CNS) AEs and PAA exposure was conducted on data from Studies 1-3. The first reported drug-related CNS AE was included in the analysis. For each such CNS AE, two PAA concentrations were identified based on the time of onset of the AE and the time of PAA assessment: (1) the closest PAA concentration before the onset of the AE; and (2) the closest PAA concentrations after the onset of the […] All time points were calculated relative to the start of study drug infusion.

clinical = details: human, in vivo, iv
Method: (§5) Plasma concentrations of ORN, PAA, PAGN, and urine concentrations of PAGN were measured using a validated LC-MS/MS method.
Hepatic dysfunction on PAA PK was investigated using the PK data from patients in Studies 2 and 3. Renal dysfunction on PAA and PAGN plasma exposure was explored using the PK data from Studies 2, 3 and 5.

[4] = Steady state plasma PAA in hospitalized patients with cirrhosis and HE, Study 3; type: in vivo, human; details: for median concentration of PAA at steady state: Study 3, Child-Pugh C patients
Method: as §2, §1

[5] = Safety of LOPA in hospitalized patients with cirrhosis, hyperammonemia and acute HE, Study 3; details: hospitalized patients with hyperammonemia and an acute episode of HE
Method: as §2, §3, §4

[6] = Safety/tolerability of LOPA in healthy subjects (SAD/MAD), Study 1; details: Study 1, healthy subjects, FIG. 2
Method: as §2, §3, §4

[7] = PK of PAA, ORN and PAGN in severe renal impairment vs normal renal function, Study 5
Method: Seven subjects with severe renal impairment and seven age, sex, and weight-matched subjects with normal renal function participated, wherein 5 males and 2 females participated in both groups.
as §5

[8] = normal renal function, LOPA 15 g/24 hour IV
[9] = severely impaired renal function, LOPA 7 g/24 hours IV

SMILES: O=C(O)Cc1ccccc1 [PAA, phenylacetic acid]
- PAA plasma concentrations, CLcr ≤35 mL/min group vs >35 mL/min group [1]: no difference
- impact of renal dysfunction on the exposure of PAA ([2]; mild, moderate or severe renal dysfunction, population PK analysis): insignificant impact
- PAA exposure at steady state, Child-Pugh C higher than Child-Pugh B ([2]; population PK model, same body weight): 36%
- PAA concentrations vs CNS AE occurrence [3]: No correlation
- half-life (clinical; 3 g/4 h): 0.65 h
- half-life (clinical; 30 g/4 h): 5.99 h
- half-life (clinical; 30 g/24 h): 1.25 h
- half-life (clinical; 60 g/24 h): 4.09 h
- median concentration of PAA at steady state ([4]; 10 g/24 hr (n=23)): 118 µg/mL
- median concentration of PAA at steady state ([4]; 15 g/24 hr (n=38)): 120 µg/mL
- plasma PAA concentration at steady state, higher in Child-Pugh C than Child-Pugh B patients ([4]; Study 3, LOPA 15 g/24 h, during infusion period): approximately 35%
- PAA exposure related neurotoxicity [5]: No PAA exposure related neurotoxicity
- severity of CNS AEs vs PAA plasma concentrations [6]: appeared to be correlated
- mean dose normalized PAA AUCt [7, 8]: 54.9 µg·h/mL/g
- mean dose normalized PAA Cmax [7, 8]: 2.61 µg/mL/g
- mean dose normalized PAA AUCt [7, 9]: 45.4 µg·h/mL/g
- mean dose normalized PAA Cmax [7, 9]: 1.58 µg/mL/g
- PAA PK: increase in Cmax and AUC with dose (IV LOPA from 10 g/4 h or 20 g/24 h up, healthy subjects and subjects with stable cirrhosis): greater than dose-proportional increase
- Recovered PAA as unchanged compound in urine (after IV LOPA): < 1 % of the administered dose of PAA

Source: US12697317B2 (priority 2019, dated 2026)
